# “Also recorded” adds a separate entry of the source.
# How the values were obtained:
# Aβ42 = molecular target: T1, Aβ42 (Homo sapiens, UniProt P05067); assay: AFM analysis of Aβ42 fibril and oligomer formation; type: biochemical; details: 1:1 ratio with Aβ42, 24 h
# T1 construct: purchased American Peptide, Inc. (Sunnyvale, Calif.)
# Experimental: Aβ42 oligomers and fibrils were prepared based on reported procedures.^43 Indicated compounds were incubated with Aβ42 at a 1:1 ratio for both conditions for 24 h. Samples were loaded on mica, washed extensively with water, and dried overnight at room temperature before AFM analysis. The morphology of the Aβ42 aggregates was assessed using an atomic force microscope (Dimension Icon, Bruker) operating in tapping mode in air. The scan rate was varied between 1 Hz and 0.5 Hz depending on the tracking quality. The silicon tips (Bruker mpp2100-100) have a sharpness of less than 5 nm and a force constant between 3 and 5 N/m along with a resonant frequency rated between […]. All images were taken with 512 points per line, with a 1:1 ratio. Images were processed using Nanoscope analysis software version 1.20 and Image-J (from the National Institutes of Health).
# MC65 cells [1] = assay: Neuroprotection assay in MC65 cells (−TC, MTT)
# Experimental: MC65 cells were washed twice with PBS, resuspended in Opti-MEM, and seeded in 96-well plates (4×10^4 cells/well). Indicated compounds were then added, and cells were incubated at 37° C. under +TC or −TC conditions for 72 h. Then, 10 μL of MTT (5 mg/mL in PBS) were added and the cells were incubated for another 4 h. Cell medium was then removed, and the remaining formazan crystals produced by the cellular reduction of MTT were dissolved in DMSO. Absorbance at 570 nm was immediately recorded using a FlexStation® 3 plate reader (Molecular Devices, CA).
# [2] = tested on: intracellular oxidative stress in MC65 cells; assay: ROS production assay in MC65 cells (DCFH-DA); type: cell-based; details: −TC, 48 h, DCFH-DA 25 μM, read-out: IC50 for suppression of intracellular oxidative stress
# Experimental: Cells were harvested, washed twice with cold PBS, then suspended in PBS and incubated with DCFH-DA (25 μM) in dark for 1 h. Fluorescence was analyzed by flow cytometry using a Millipore Guava® easyCyte flow cytometer.
# in vitro = details: PAMPA
# Experimental: In the same assay, 10 commercial drugs with known CNS penetration were also tested as positive controls, and their experimental values were compared to reported values (Table 1).
# MC65 cells [3] = assay: Rotenone protection assay in MC65 cells; type: cell-based; details: up to 1 μM, rotenone 10 μM, 48 h
# Experimental: The medium was removed and compounds were added at the indicated concentrations in fresh growth medium, and the cells were incubated for another 2 h. Rotenone was then added at a final concentration of 10 μM, and the plates were then incubated for 48 h. Cell viability was assessed by MTT assay.
# [4] = tested on: amyloid-β oligomers (AβOs) in MC65 cells; assay: Western blot (6E10) of AβOs production in MC65 cells; type: cell-based; details: MC65 cells after removal of TC, 6E10 antibody
# Experimental: MC65 cells (4×10^5 cells/mL) were treated with indicated compounds for 30 h and then were lysed by sonication in a Tricine buffer solution and boiled for 5 min. Protein samples were collected from the supernatant after centrifugation of the samples at 12,800×g for 5 min, and then quantified using the Bradford method. Equal amounts of protein (20.0 μg) were separated by SDS-PAGE on a gel (Bio-Rad) and transferred onto a PVDF membrane (Bio-Rad). The blots were blocked with 5% milk in TBS-Tween 20 (0.1%) solution at room temperature for 1 h and then probed with the 6E10 antibody overnight at 4° C. The blots were washed twice in TB S-Tween 20 for 15 min, and then incubated with a 1:1000 dilution of horseradish peroxidase-conjugated secondary antibody in a 5% milk/PBS-Tween 20 solution at room temperature for 1 h. After washing twice in TBS-Tween 20 for 15 min, the proteins were visualized by a Western Blot Chemiluminescence Reagent (Thermo Fischer Scientific, Waltham, Mass.). The blots were also probed with antibodies against α-tubulin to ensure equal loading of proteins.
# T1 sequence (P05067 672-713 limits assumed): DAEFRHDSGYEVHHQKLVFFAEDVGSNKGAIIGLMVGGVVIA
structure (smiles),measurement,setting,value
"COc1ccc2[nH]cc(CCNC(=O)CC(=O)CCc3ccc(O)cc3)c2c1 [Compound 7, 5-(4-hydroxy-phenyl)-3-oxo-pentanoic acid [2-(5-methoxy-1H-indol-3-yl)-ethyl]-amide]",inhibition of fibrillization and oligomerization of Aβ42 (AFM),Aβ42,no inhibition
same,neuroprotection of MC65 cells from −TC induced cell death,"MC65 cells [1]; 0.3 μM, −TC, 72 h, MTT",significant and comparable protection
same,EC50,"MC65 cells [1]; MC65, 72 h, read-out: EC50 for neuroprotection of MC65 cells",27.6 ± 9.4 nM
same,IC50,[2],~68 nM
same,Papp,in vitro,7.9 ± 0.6 ×10⁻⁶ cm/s
same,protection from rotenone-induced cytotoxicity,MC65 cells [3],did not show protection
same,"effect on the production of AβOs (tetramers, pentamers, heptamers)",[4],moderate inhibitory effects; also recorded: dose-dependently suppressed

# From US9738605B2, “Hybrid compounds of curcumin and melatonin as neuroprotectants for neurodegenerative disorders” (VIRGINIA COMMONWEALTH UNIVERSITY, priority 2013, dated 2017)
